Consider seven molecules from patent US20220073521A1, “PYRIMIDINE AND FIVE-MEMBERED NITROGEN HETEROCYCLE DERIVATIVE, PREPARATION METHOD THEREFOR, AND MEDICAL USES THEREOF” (Tuojie Biotech (Shanghai) Co., Ltd., priority 2018, published 2022).

SMILES strings stand for the structures. Where two headings read alike, the source gives them in different places. Some results are limits rather than exact numbers.

In data set [1] the target is T1, SHP2 wild-type phosphatase (recombinantly expressed full-length SHP2, aa 1-593) (Homo sapiens, UniProt Q06124).
T1 sequence (Q06124 1-593): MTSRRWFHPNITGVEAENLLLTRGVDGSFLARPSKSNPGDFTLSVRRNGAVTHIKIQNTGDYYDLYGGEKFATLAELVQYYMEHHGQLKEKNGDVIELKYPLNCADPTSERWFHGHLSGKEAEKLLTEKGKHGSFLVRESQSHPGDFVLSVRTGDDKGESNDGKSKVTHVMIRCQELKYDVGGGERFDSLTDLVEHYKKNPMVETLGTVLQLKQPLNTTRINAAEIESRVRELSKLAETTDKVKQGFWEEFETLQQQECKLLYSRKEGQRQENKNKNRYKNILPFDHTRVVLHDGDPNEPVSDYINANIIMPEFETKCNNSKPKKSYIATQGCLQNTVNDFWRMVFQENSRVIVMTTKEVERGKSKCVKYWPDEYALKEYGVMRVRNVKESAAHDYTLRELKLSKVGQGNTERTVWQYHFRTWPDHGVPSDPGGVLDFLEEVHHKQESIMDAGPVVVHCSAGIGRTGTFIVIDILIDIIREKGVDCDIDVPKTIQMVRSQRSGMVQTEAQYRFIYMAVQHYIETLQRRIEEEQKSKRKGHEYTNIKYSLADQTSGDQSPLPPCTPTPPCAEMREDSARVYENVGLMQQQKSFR
In words: In vitro activity on SHP2 wild-type phosphatase (DiFMUP fluorescence).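 Note: enzyme preincubated at room temperature, then DiFMUP reaction run at room temperature and halted with SDS, potency derived from a logistic curve fit.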 Particulars: wild-type full-length SHP2, activated polypeptide IRS1 0.5 nM, DiFMUP 30 μM.

Another data set concerns p-ERK in KYSE-520 cells. Kind of data set: Determination of p-ERK in KYSE-520 cells (HTRF). It is filed as cell-based. As to conditions: Homo sapiens, KYSE-520, 2 h. The method, then:
KYSE-520 cells (Nanjing Cobioer Biosciences CO., Ltd.) in the logarithmic growth phase were inoculated (30,000 cells/well) in 1640 medium containing 10% of FBS, and adhered in a 96-well plate overnight (5% CO2, 37° C.). […] The cell culture was stopped with cell lysate. The level of phosphorylated ERK in KYSE-520 cells was determined by a method based on homogeneous time-resolved fluorescence HTRF (Cisbio, 64ERKPEG). The fluorescence values (Ex337 nm/Em625/665 nm) were read on the compatible HTRF reader (MD SpectraMax).
For orientation: TR-FRET usually uses a lanthanide donor and a delayed reading to cut background.

The target of a further data set is T2, hERG potassium channel (Homo sapiens, UniProt Q12809).
T2 construct: host or cells: CHO hERG cells
Kind of data set: hERG current inhibition experiment (manual patch clamp, CHO hERG cells). In kind it is cell-based. As to conditions: whole-cell patch clamp, tail current. The method, then:
In this experiment, whole-cell current recording was performed using a manual patch clamp system (HEKA EPC-10 signal amplification and digital conversion system, purchased from HEKA Electronic, Germany). The round glass slide of which surface CHO hERG cells (provided by Sophion Bioscience Inc., Denmark, the cell generation number was P21) were grown on was placed in an electrophysiological recording slot under an inverted microscope. The recording slot was continuously perfused with extracellular fluid (approximately 1 mL per minute). Conventional whole-cell patch clamp current recording technique was used in the experiment. The experiments were performed at normal room temperature (˜25° C.). The cells were clamped at a voltage of −80 mV. Cell patch clamp voltage was depolarized to +20 mV to activate hERG potassium channel, and to −50 mV after 5 seconds to eliminate inactivation and generate tail currents. The tail current peak was used as a value of hERG current. When the hERG potassium current recorded in the above steps became steady under continuous perfusion of the extracellular fluid in the recording slot, the drug to be tested could be added to the perfusion, until the inhibition effect of the drug on hERG current reached a steady state. Generally, the overlapping of most recent three consecutive current recording lines was used as a criterion to determine whether the state was stable. After reaching the steady state, the recording slot was perfused with extracellular fluid until the hERG current returned to the value before the drug adding. The test data was analyzed by HEKA Patchmaster (V2x73.2), Microsoft Excel and the data analysis software provided by Graphpad Prism 5.0.
A general note: hERG is a cardiac potassium channel; its block is linked to QT prolongation.

Another data set has as its system KYSE-520 cells. In words: KYSE-520 cell proliferation experiment (CellTiter-Glo, 7 days). It is filed as cell-based. As to conditions: Homo sapiens. The method, then: The treated cell plate was incubated at 37° C., 5% CO2 for 7 days. CellTiter-Glo (Promega, G7573) was used to determine the number of viable cells in each well of the treated plate. 100 μL of the detection reagent was added to each well, and the plate was incubated at room temperature for 10 minutes. Then, the […] in each well was measured with Envision plate reader (PerkinElmer). […] The IC50 value was further calculated as the compound concentration required for 50% proliferation inhibition in the best-fit curve with […].
For orientation: In ATP-based viability assays light output follows the ATP content of the culture.

Data set [2] in a line: Pharmacokinetics assay in rats. In kind it is in vivo, SD rats. Particulars: rat; for AUC: read-out: Area under curve AUC; for half-life: read-out: Half-life T1/2 (converted). Here is the method: Rats were used as test animals. The drug concentration in plasma at different time points was determined by LC/MS/MS method after intravenous administration or intragastrical administration of the compound of the present invention to rats. The pharmacokinetic behavior of the compound of the present invention was studied and evaluated in rats.
The atropisomer with a RT of 1.495 minutes in Examples 3 and 4, compounds of Example 17, Example 41 and Example 43.
Healthy male SD rats (6-8 weeks old), 3 rats per group.
Intravenous administration: A certain amount of the test compound was weighed, to which 10% by volume of N,N-dimethylacetamide, 33% by volume of triethylene glycol and 57% by volume of water were added to prepare a 1 mg/mL colorless, clear and transparent solution;
Intragastrical administration: A certain amount of the test compound was weighed, to which 0.5% by mass of hypromellose, 0.1% by volume of Tween 80 and 99.4% by volume of water were added to prepare a 1 mg/mL white suspension.
After an overnight fast, the SD rats were intravenously administered the test compound at an administration dose of 1 mg/kg, or intragastrically administered the test compound at an administration dose of 5 mg/kg.
The rats were intravenously administered the compound of the present invention. 0.2 ml of blood was taken from the jugular vein at 0.083, 0.25, 0.5, 1, 2, 4, 8 and 24 hours after the administration. The samples were placed in tubes containing EDTA-K2, and centrifuged at 4000 rpm and 4° C. for 5 minutes to separate the blood plasma. The plasma samples were stored at −75° C.
Or, the rats were intragastrically administered the compound of the present invention. 0.2 ml of blood was taken from the jugular vein at 0.25, 0.5, 1, 2, 4, 8 and 24 hours after the administration. The samples were placed in tubes containing EDTA-K2, and centrifuged at 4000 rpm and 4° C. for 5 minutes to separate the blood plasma. The plasma samples were stored at −75° C.
The content of the test compound in the plasma of rat after intragastrical administration of the test compound at different concentrations was determined: 50 μL of rat plasma at each time after administration was taken, to which 200 μL of a solution (50 ng/mL) of internal standard dexamethasone in acetonitrile was added. The plasma was vortex-mixed for 30 seconds, and centrifuged at 4700 rpm and 4° C. for 15 minutes. The supernatant was taken from the plasma samples, and a three-fold dilution was carried out by adding water. 2.0 μL of the supernatant was used for LC/MS/MS analysis.

The term IC50 denotes the concentration needed to halve the response being measured. What is called AUC is the area under the concentration-time curve, a measure of exposure. In general, clearance refers to a measure of how efficiently the substance is removed, as volume per time. A word on the bioavailability: it is dose-corrected exposure relative to a reference, in per cent.

T2 sequence (Q12809 whole entry): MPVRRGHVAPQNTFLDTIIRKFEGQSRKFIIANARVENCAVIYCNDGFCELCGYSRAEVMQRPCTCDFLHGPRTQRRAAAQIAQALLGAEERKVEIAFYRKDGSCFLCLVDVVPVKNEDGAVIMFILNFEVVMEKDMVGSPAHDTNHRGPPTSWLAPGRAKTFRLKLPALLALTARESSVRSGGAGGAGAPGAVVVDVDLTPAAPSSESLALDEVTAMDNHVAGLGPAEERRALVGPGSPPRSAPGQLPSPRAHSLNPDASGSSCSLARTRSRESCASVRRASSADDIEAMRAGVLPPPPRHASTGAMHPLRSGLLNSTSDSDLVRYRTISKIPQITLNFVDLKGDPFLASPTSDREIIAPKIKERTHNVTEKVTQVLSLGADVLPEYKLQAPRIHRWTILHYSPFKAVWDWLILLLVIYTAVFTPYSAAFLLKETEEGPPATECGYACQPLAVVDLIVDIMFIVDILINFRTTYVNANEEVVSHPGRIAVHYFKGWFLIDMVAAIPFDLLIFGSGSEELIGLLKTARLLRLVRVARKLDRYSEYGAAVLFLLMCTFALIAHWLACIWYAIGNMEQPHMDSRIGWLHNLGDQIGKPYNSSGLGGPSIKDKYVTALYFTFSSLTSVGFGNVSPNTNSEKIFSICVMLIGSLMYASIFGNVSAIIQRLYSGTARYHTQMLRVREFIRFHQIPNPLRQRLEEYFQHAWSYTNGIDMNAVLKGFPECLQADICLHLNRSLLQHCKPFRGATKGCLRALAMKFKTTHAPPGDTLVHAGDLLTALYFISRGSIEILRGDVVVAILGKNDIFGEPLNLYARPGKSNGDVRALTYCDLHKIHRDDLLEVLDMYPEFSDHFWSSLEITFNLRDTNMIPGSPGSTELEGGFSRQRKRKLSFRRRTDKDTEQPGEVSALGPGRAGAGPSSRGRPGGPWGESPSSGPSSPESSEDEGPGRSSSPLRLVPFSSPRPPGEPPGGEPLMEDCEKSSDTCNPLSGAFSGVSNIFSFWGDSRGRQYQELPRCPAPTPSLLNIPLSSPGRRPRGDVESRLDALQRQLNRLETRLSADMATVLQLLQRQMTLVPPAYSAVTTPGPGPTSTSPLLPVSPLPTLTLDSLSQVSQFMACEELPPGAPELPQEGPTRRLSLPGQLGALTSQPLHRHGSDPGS

With `N[C@@H]1c2cccnc2CC12CCN(c1ncc(Sc3ccnc(NC4CC4)c3Cl)c3nccn13)CC2` [Example 36, (S)-1′-(8-((3-Chloro-2-(cyclopropylamino)pyridin-4-yl)thio)imidazo[1,2-c]pyrimidin-5-yl)-5,7-dihydrospiro[cyclopenta[b]pyridine-6,4′-piperidin]-5-amine], the half-maximal inhibitory concentration (IC50) amounted to 2.6 nM in data set [1], 8 nM with p-ERK in KYSE-520 cells, 3970 nM against hERG potassium channel and 40.5 nM with KYSE-520 cells.
The corresponding values for `Cc1nc(N2CCC3(CC2)CO[C@@H](C)[C@H]3N)n2cnnc2c1-c1cccc(Cl)c1Cl` [Example 9, (3S,4S)-8-(8-(2,3-Dichlorophenyl)-7-methyl-[1,2,4]triazolo[4,3-c]pyrimidin-5-yl)-3-methyl-2-oxa-8-azaspiro[4.5]decan-4-amine] are 3.2 nM, 285 nM, 1910 nM and 785 nM.
The corresponding values for `Cc1nc(N2CCC3(CCC[C@H]3N)CC2)n2ccnc2c1-c1cccc(Cl)c1Cl` [Example 1, (R)-8-(8-(2,3-Dichlorophenyl)-7-methylimidazo[1,2-c]pyrimidin-5-yl)-8-azaspiro[4.5]decan-1-amine] are 4.5 nM, 383 nM, 2130 nM and 723 nM.
For `C[C@@H]1OCC2(CCN(c3ncc(Sc4cccnc4C(F)(F)F)c4nccn34)CC2)[C@@H]1N` [Example 17, (3S,4S)-3-Methyl-8-(8-((2-(trifluoromethyl)pyridin-3-yl)thio)imidazo[1,2-c]pyrimidin-5-yl)-2-oxa-8-azaspiro[4.5]decan-4-amine], the IC50 is 4.2 nM in data set [1], 32.3 nM in the data set with p-ERK in KYSE-520 cells, 12300 nM on hERG potassium channel and 179 nM in the data set on KYSE-520 cells. The AUC in data set [2] (male, SD, plasma, IV 1 mg/kg) amounted to 764 ± 196 ng·h/mL; in data set [2] (male, SD, plasma, PO 5 mg/kg) it was 3210 ± 351 ng·h/mL. Moreover, the clearance in data set [2] (male, SD, plasma, IV 1 mg/kg, read-out: Clearance CL_obs) is 21.5 ± 5.2 mL/min/kg. Moreover, the half-life in data set [2] (male, SD, plasma, IV 1 mg/kg) was 2.83 ± 0.93 h; in data set [2] (male, SD, plasma, PO 5 mg/kg), 3.42 ± 0.37 h. The bioavailability in data set [2] (male, SD, plasma, PO 5 mg/kg vs IV 1 mg/kg, read-out: Bioavailability F) stood at 80.3 ± 8.5%. Besides, in data set [2] (male, SD, plasma, PO 5 mg/kg, read-out: Maximum plasma concentration Cmax), the Cmax was 408 ± 77 ng/mL. In addition, the “Apparent distribution volume Vss_obs” value in data set [2] (IV 1 mg/kg) is 3.8 ± 0.1 L/kg.
For the molecule `Cc1nc(N2CCC3(CC2)CO[C@@H](C)[C@H]3N)n2ccnc2c1-c1cccc(Cl)c1Cl` [Example 2, (3S,4S)-8-(8-(2,3-Dichlorophenyl)-7-methylimidazo[1,2-c]pyrimidin-5-yl)-3-methyl-2-oxa-8-azaspiro[4.5]decan-4-amine], the IC50 in data set [1] stood at 1.1 nM; in the data set with p-ERK in KYSE-520 cells, 40.5 nM; on hERG potassium channel, 2610 nM; in the data set with KYSE-520 cells, 186 nM.
The corresponding values for `C[C@@H]1OCC2(CCN(c3nc(N)c(Sc4cccnc4C(F)(F)F)c4nccn34)CC2)[C@@H]1N` [Example 24, (3S,4S)-8-(7-Amino-8-((2-(trifluoromethyl)pyridin-3-yl)thio)imidazo[1,2-c]pyrimidin-5-yl)-3-methyl-2-oxa-8-azaspiro[4.5]decan-4-amine] are 4.4 nM, 11 nM, more than 30000 nM and 75.9 nM.
The corresponding values for `Cc1nc(N2CCC3(CC2)Cc2ncccc2[C@H]3N)n2ccnc2c1Sc1ccnc(N)c1Cl` [Example 42, (S)-1′-(8-((2-Amino-3-chloropyridin-4-yl)thio)-7-methylimidazo[1,2-c]pyrimidin-5-yl)-5,7-dihydrospiro[cyclopenta[b]pyridine-6,4′-piperidin]-5-amine] are 1.9 nM, 20.2 nM, more than 30000 nM and 65.1 nM.
